Assay results reported in ChEMBL document CHEMBL1153773, “Structure-activity relationship of seco-tanapartholides isolated from Achillea falcata for inhibition of HaCaT cell growth” (Eur J Med Chem, 2009).
≈ marks a conversion by molar mass, not a printed value. Calls of active or inactive are those of the source. The rule behind the calls is not given here.

Assays:
HaCaT [1] = experiment: Cytotoxicity against human HaCaT cells after 24 hrs by MTT assay; type: functional, cell-based
HaCaT [2] = experiment: Cytotoxicity against human HaCaT cells assessed as lactate dehydrogenase release at 5 ug/ml after 6 hrs by ELISA; type: functional
HaCaT [3] = experiment: Cytotoxicity against human HaCaT cells assessed as lactate dehydrogenase release at 10 ug/ml after 6 hrs by ELISA; type: functional
HaCaT [4] = experiment: Cytotoxicity against human HaCaT cells assessed as lactate dehydrogenase release at 15 ug/ml after 6 hrs by ELISA; type: functional
HaCaT [5] = experiment: Cytotoxicity against human HaCaT cells assessed as lactate dehydrogenase release at 20 ug/ml after 6 hrs by ELISA; type: functional
HaCaT [6] = experiment: Cytotoxicity against human HaCaT cells assessed as lactate dehydrogenase release at 25 ug/ml after 6 hrs by ELISA; type: functional
HaCaT [7] = experiment: Cytotoxicity against human HaCaT cells assessed as lactate dehydrogenase release at 50 ug/ml after 6 hrs by ELISA; type: functional
HaCaT [8] = experiment: Cytotoxicity against human HaCaT cells assessed as lactate dehydrogenase release at 75 ug/ml after 6 hrs by ELISA; type: functional
HaCaT [9] = experiment: Cytotoxicity against human HaCaT cells assessed as lactate dehydrogenase release at 100 ug/ml after 6 hrs by ELISA; type: functional
[10] = Cytotoxicity against human keratinocytes at 25 ug/ml; type: cell-based; conditions: keratinocyte
HaCaT [11] = experiment: Cytotoxicity against human HaCaT cells assessed as reduction in cell viability at 5 ug/ml after 24 hrs by MTT assay; type: functional
HaCaT [12] = experiment: Cytotoxicity against human HaCaT cells assessed as reduction in cell viability at 10 ug/ml after 24 hrs by MTT assay; type: functional
[13] = Cytotoxicity against human Keratinocyte cells assessed as reduction in cell viability at 5 ug/ml after 24 hrs by MTT assay; type: cell-based
[14] = Cytotoxicity against human Keratinocyte cells assessed as reduction in cell viability at 10 ug/ml after 24 hrs by MTT assay; type: cell-based
HaCaT [15] = experiment: Cell cycle arrest in human HaCaT cells assessed as accumulation at G2/M phase after 24 hrs; type: functional, cell-based

Structure (SMILES)	Activity (HaCaT [1])	IC50 (HaCaT [1])	Activity (HaCaT [2])	Activity (HaCaT [3])	Activity (HaCaT [4])	Activity (HaCaT [5])	Activity (HaCaT [6])	Activity (HaCaT [7])	Activity (HaCaT [8])	Activity (HaCaT [9])	Activity [10]	Activity (HaCaT [11])	Activity (HaCaT [12])	Activity [13]	Activity [14]	Activity (HaCaT [15])
C=C1C(=O)O[C@H](C2=C(C)[C@@H](O)CC2=O)[C@@H]1CCC(C)=O	Dose-dependent effect	13 µg/mL (≈ 46.7 µM)	4%	18%	0%	11%	11%	0%	2%							
C=C1C(=O)O[C@H](C2=C(C)C(O)CC2=O)[C@@H]1CCC(C)=O (mixture of isomers)	Dose-dependent effect	19.1 µg/mL	2%	3%	2%	5%	3%	0%	0%	0%						
C=C1C(=O)O[C@H](C2=C(C)[C@@H](OC)CC2=O)[C@@H]1CCC(C)=O	Dose-dependent effect	7.1 µg/mL (≈ 24.3 µM)	7%	7%	7%	5%	7%	0%	0%	0%	Toxic	44%	66%	> 10%	> 10%	Active
C=C1C(=O)O[C@H](C2=C(C)C(OC)CC2=O)[C@@H]1[C@@H](O)CC(C)=O (stereo not given in full)	Dose-dependent effect	16.7 µg/mL (≈ 54.2 µM)	4%	4%	4%	4%	5%	2%	1%	0%						
